The results in this text go back to US20060159780A1, “Prevention and amelioration of acetaminophen toxicity with tea melanin” (National Chiao Tung University, priority 2005, published 2006).

The subject of one data set is CoQ9. Briefly: Coenzymes Q assay in liver: CoQ9. To be noted: NAPAP 400 mg/kg itself, FIG. 3. In kind it is in vivo, mice. Here is the method:
(§1) Adult male ICR mice (30±5 g) were employed for all experiments. Animals were housed under controlled condition (25±2° C.) and 12 h light/dark cycle, and allowed free access to food and water, but fasted overnight before treatment. Animals were divided into several groups including control group (not receiving any treatment), negative control (receiving TSM alone), positive control (receiving only NAPAP), and experimental groups receiving NAPAP and TSM together. Each experimental group consisted of 6 mice. NAPAP was dissolved in normal saline (pH 7.4) and administered inraperitonially (i.p.) with a dose of 400 mg/kg. TSM was dissolved in distillate water at pH 7.2 and administered i.p. with doses of 10, 20, 30, or 40 mg/kg 2 h before intoxication. All animals were sacrificed by ether anesthesia 24 h after the NAPAP exposure. Blood samples were withdrawn by cardiac puncture for determination of alanine aminotransferase (ALT) activity using commercially available kit (Sigma 505-P). Liver was isolated and perfused with normal saline to wash out the blood. […]
(§2) Determination of reduced forms of CoQ9 and CoQ10 was carried out by the method of Ikenoya et al. (Ikenoya, S. et al., Chem Pharm Bull. 1981, 29, 158-164). […] The extract was analyzed using HPLC with Jasco 840 EC detector and Chemosorb ODS-H column (4.6×250 mm). […]

A further data set concerns ICR mice. The data set is described as follows: Toxicity of NAPAP in mice: mortality and behaviour. In kind it is in vivo. As to the method:
(§3) Adult male ICR mice (30±5 g) were employed for all experiments. Animals were housed under controlled condition (25±2° C.) and 12 h light/dark cycle, and allowed free access to food and water, but fasted overnight before treatment. Animals were divided into several groups including control group (not receiving any treatment), negative control (receiving TSM alone), positive control (receiving only NAPAP), and experimental groups receiving NAPAP and TSM together. Each experimental group consisted of 6 mice. NAPAP was dissolved in normal saline (pH 7.4) and administered inraperitonially (i.p.) with a dose of 400 mg/kg. TSM was dissolved in distillate water at pH 7.2 and administered i.p. with doses of 10, 20, 30, or 40 mg/kg 2 h before intoxication. All animals were sacrificed by ether anesthesia 24 h after the NAPAP exposure. Blood samples were withdrawn by cardiac puncture for determination of alanine aminotransferase (ALT) activity using commercially available kit (Sigma 505-P). Liver was isolated and perfused with normal saline to wash out the blood. It was then used for determination of GSH, oxidized glutathione (GSSG), superoxide dismutase (SOD), thiobarbituric acid reactive substances (TBARS), and reduced forms of coenzymes Q9 (CoQ9) and Q10 (CoQ10).
The behavior of the animals in experimental group resembled the control group by movement activity. […]

The subject of data set [1] is superoxide dismutase (SOD). The data set is described as follows: Superoxide dismutase assay in mouse liver. It is filed as in vivo, mice. The conditions noted are these: NAPAP alone, FIG. 2. As to the method:
as §1, with “exposure.” for “exposure. Blood samples were withdrawn by cardiac puncture for determination of alanine aminotransferase (ALT) activity using commercially available kit (Sigma 505-P). Liver was isolated and perfused with normal saline to wash out the blood.”
Determination of superoxide dismutase activity in mouse liver was based on inhibition of nitrite formation in reaction of oxidation of hydroxylammonium with superoxide anion radical (Elstner, E. F. and Heupel, A. Anal. Biochem. 1976, 70, 616-620). […] Optical absorbance at 530 nm was measured with Ultrospec III spectrophotometer (Pharmacia, LKB). The results were expressed as units of SOD activity calculated per milligram of protein.

In the next data set the test system is hepatic GSH. Briefly: Hepatic GSH assay. In kind it is in vivo, mice. Here is the method: as §1, with “exposure.” for “exposure. Blood samples were withdrawn by cardiac puncture for determination of alanine aminotransferase (ALT) activity using commercially available kit (Sigma 505-P). Liver was isolated and perfused with normal saline to wash out the blood.”
(§4) Frozen liver tissue was homogenized in 5% trichloroacetic acid (TCA) supplemented with 5 mM EDTA under a stream of nitrogen gas, then centrifuged at 20,000 g for 10 min at 4° C. […] The total hepatic glutathione level representing the sum of GSH and GSSG was determined using dithiobis-2-nitrobenzoic acid (Griffith, O. W. Anal. Biochem. 1980, 106, 207-212). The GSSG level was determined after elimination of GSH by reaction with 2-vinylpyridine, and the actual GSH level was calculated by subtracting the GSSG level from the total glutathione.

The test system of data set [2] is antibody-forming cells (AFC) of splenocytes. The data set is described as follows: Antibody-producing response (AFC plaque assay) after SRBC sensitization. It is filed as in vivo. To be noted: NAPAP 400 mg/kg i.p.; SRBC-sensitized ICR mice. As to the method: Experiments were performed on 10 groups of intact ICR mice consisting of 4 animals each. The first 5 groups were injected i.p. with the following single doses of TSM: 0, 10, 20, 30, and 40 mg/kg. The second 5 groups were injected similarly to the first groups with TSM, but after 2 h animals were again injected (i.p.) with 400 mg/kg NAPAP. One day after administration of TSM or TSM+NAPAP, mice were injected into the tail vein with 1×10^8 sheep red blood cells (SRBC) prepared in 0.2 mL of saline. An additional 4 animals received only SRBC (antigen control). Four days after their sensitization with SRBC, animals were sacrificed, and their spleens were removed. Single splenocytes were prepared from each spleen in 5 mL of RPMI-1640 media. Enumeration of the antibody-forming cells (AFC) was performed using a plaque assay (Jerne, N. K. and Nordin, A. A. Science 1963, 140, 405). AFC values were calculated for 10^6 splenocytes.

Data set [3] relates to alanine aminotransferase (ALT) activity. Briefly: Alanine aminotransferase (ALT) activity in blood of NAPAP-intoxicated mice. To be noted: NAPAP 400 mg/kg i.p. alone; 24 h of exposure; mean ± SEM. In kind it is in vivo. Here is the method:
as §3

Another data set has as its system CoQ10. Briefly: Coenzymes Q assay in liver: CoQ10. In kind it is in vivo, mice. The conditions noted are these: NAPAP 400 mg/kg itself, FIG. 3. As to the method:
as §1, §2

Data set [4] has as its system oxidized glutathione (GSSG). The data set is described as follows: Hepatic GSSG assay. It is filed as in vivo, mice. The conditions noted are these: NAPAP 400 mg/kg i.p. alone; liver, 24 h; mean ± SEM. Here is the method:
as §1, with “exposure.” for “exposure. Blood samples were withdrawn by cardiac puncture for determination of alanine aminotransferase (ALT) activity using commercially available kit (Sigma 505-P). Liver was isolated and perfused with normal saline to wash out the blood.”
as §4

Consider `CC(=O)Nc1ccc(O)cc1` [NAPAP, N-Acetyl-p-aminophenol], for which the “content of CoQ9 diminished, compared to negative control” value with CoQ9 is listed as 60%. The same compound registered an Animal lethality in the data set on ICR mice (NAPAP 400 mg/kg administered alone) of 66%. Moreover, the “Mortality (dead/total)” value in the data set with ICR mice (NAPAP 400 mg/kg i.p. alone, 24 h of exposure) was 2/6. The “decrease of SOD activity as compared to control” value in data set [1] is ~4 fold. In the data set on hepatic GSH (NAPAP 400 mg/kg i.p. alone, liver, 24 h, mean ± SEM), the GSH is listed as 13 ± 1 nmol/mg prot. For the same compound, the “depletion of GSH level as compared to control” value in the data set on hepatic GSH (NAPAP alone, 24 h after administration) is 2.6 fold. The “suppression of AFC against the antigen control level” value in data set [2] is listed as 26%. This compound also came in with an ALT in data set [3] of 2043 U/L. The “coenzyme Q10 content diminished, compared to negative control” value in the data set on CoQ10 came to 55%. In data set [4], this compound registered a GSSG of 3.2 ± 0.4 nmol/mg prot.
